The values below come from patent US9980490B1, “Method of disinfecting bacterial contaminated surfaces or removing bacteria from contaminated surfaces” (priority 2014, dated 2018).

Read-outs that look alike come from different tables or passages of the source.

Data set [1] can be described thus: Highest aqueous concentration before salt precipitates. Particulars: room temperature; above this insoluble salt precipitates. Format: physicochemical.
Excerpt: The final salt (soap) product, ammonium nonanoate, is made by neutralization by mixing the oleic-derived nonanoic acid with an equal molar amount of ammonia dissolved in water until a clear one-phase solution with a pH range of 7.5 to 8.5 occurs. At this point all of the acid is converted to ammonium salt: none remains in the product. […] The final concentration of ammonium nonanoate depends on the amount of water used. The highest concentration that can be made is approximately 40% since above this concentration at room temperature, insoluble salt precipitates as a solid.
The conditions of data set [2]: according to the EPA; cited from earlier work.
The subject of data set [3] is Escherichia coli (gram negative). Kind of data set: Suspension time-kill test of aqueous ammonium nonanoate, survivors assayed after neutralization. Format: cell-based. Particulars: 1% aqueous solution, 1 minute exposure, ambient temperature. On the procedure: (§1) There were no other ingredients in these solutions except the ammonium salts and water. […] Suspensions of test bacteria were exposed to the 1% and 2% ammonium nonanoate solutions for specified exposure times at ambient temperature. After exposure, aliquots of the suspensions were transferred to neutralizer and assayed for survivors. Appropriate culture purity, neutralizer sterility, test population, and neutralization confirmation controls were performed. […] This is a reduction of live bacteria of >99.999%.

In data set [4] the test system is Enterococcus faecalis (gram positive). Described as above. Format: cell-based. Particulars: 1% aqueous solution, 1 minute exposure, ambient temperature. On the procedure: as §1
Data set [5] relates to mammals and birds. Particulars: EPA Biochemical Division registration as bioherbicide; cited from earlier work.
The test system of data set [6] is pseudomonas aeruginosa (gram negative). The experiment in a line: Suspension time-kill test of aqueous ammonium nonanoate. Format: cell-based. Particulars: 2% aqueous solution, 1 minute. On the procedure:
as §1

Data set [7] has as its system Staphylococcus aureous. The description is as above. Format: cell-based. Particulars: 2% aqueous solution, 2 minutes. On the procedure:
as §1

In data set [8] the test system is Candida albicans. The following applies: even numbered C8 to C18 fatty acids screened; cited from earlier work.
For data set [9], the system named is Streptococcus Group A. Particulars: even numbered C8 to C18 fatty acids screened; cited from earlier work.
For data set [10], the system named is Staphlycoccus aureous. Particulars: even numbered C8 to C18 fatty acids screened; cited from earlier work.
For data set [11], the system named is rats. Particulars: cited from earlier work; for LD50: oral, Federal Register.
Data set [12] has as its system rats. Particulars: cited from earlier work.
Data set [13] deals with human skin. Particulars: 12% solution, 48 hr. closed patch test; cited from earlier work.
The test system of data set [14] is mice. Particulars: oral, Federal Register; cited from earlier work.

`CCCCCCCCC(=O)O.N` [ammonium nonanoate]: the “highest concentration that can be made in water” value in data set [1] is “approximately 40%”. In addition, the “time to biodegradation after formation” value in data set [2] is not above 24 h. The “log reduction in the population” value in [3] and in data set [4] was 5 log each time. In addition, the “reduction of live bacteria” value in [3] and in data set [4] was more than 99.999% each time. Besides, the “toxicity to mammals and birds” value in data set [5] was “non-toxic”. Also, the reduction in population in [6] and in [7] was more than 99.999% each time.

Consider `CCCCCCCCCC(=O)O` [capric acid], for which the “antimicrobial activity relative to other fatty acids tested” value in [8], in data set [9] and in [10] was “highest activity” in each case.

On to `CCCCCCCCC(=O)O` [nonanoic acid], for which the “oral LD50” value in data set [11] (male rats) was > 9,000 mg/kg; in data set [11] (rats, Patty's Industrial Hygiene and Toxicology), 15 g/kg. The LD50 result in data set [11] (rats, indicated by no death at 3,200 mg/kg) is reported as “over 3,200 mg/kg”; in data set [11] (rats), 5,000 mg/kg; in [14], 5,000 mg/kg. For the same compound, the death of rats result in data set [11] (undiluted, oral, 3,200 mg/kg body weight, Federal Register Vol. 69 No. 52 p. 12672) is on record as “did not cause death of any of the rats”. The mortality entry in data set [12] (0.46 mg/liter as an aerosol for four hours) is “no mortality”. Further, the symptoms of toxicity result in data set [12] (atmospheric concentration (125 ppm), 6 hours) is listed as “no symptoms of toxicity”. The “irritation on human skin” value in data set [13] is reported as “no irritation”.
